Test results reported in patent publication US4935240A, “Benzoylaminophenoxybutanoic acid derivatives” (Ono Pharmaceutical Co., Ltd., priority 1987, dated 1990).
pIC50: −log10 of the molar value.

Molecular target: 5α-reductase
Assay: 5α-reductase inhibitory activity in vitro
Type: biochemical
Details: rat prostate enzyme, [4-C14]testosterone + NADPH, 60 mins at 37° C.
Experimental: 5α-reductase inhibitory activity in vitro
Inhibitory activity on 5α-reductase in vitro was measured by the following test system.
The test was carried out by being referred to the method of J. Shimazaki et al [See Endocrinol, Japan., 18, 179 (1971)].
Male rats' prostate (4g) was homogenized with its 3-fold volume of 0.1 M HEPES buffer (pH 7.4) including 0.25 M cane sugar, and was centrifuged at 3000 r.p.m. for 10 mins.
The precipitate was suspended into the buffer solution described above (10 ml), and the suspension was centrifuged at 3000 r.p.m. for 5 mins. The resulting precipitated was suspended in the buffer solution (3 ml) described above and was used as a sauce of enzyme.
A reaction mixture (total volume 0.1 ml) of [4-c^14 ]testosterone (1.5n mol, 1.5×10^5 cpm), NADPH (0.5 μmol), enzyme solution (0.03 ml) described above and several kinds of concentration of the compounds in the present invention was incubated for 60 mins at 37° C. Enzyme reaction was quenched by addition of a mixture (0.4 ml) of chloroform and methanol (1:2), and the mixture was centrifuged at 2000 r.p.m. for 3 mins. The supernatant (50 μl) was spotted on silica gel thin layer plate. The spot on the plate was developed with a mixture of chloroform, methanol and acetic acid (99.2:0.6:0.2). Radioactivity of dihydrotestosterone generated on the plate was measured by TLC scanner of radio-autography and inhibitory ratio was calculated.

`O=C(O)CCCOc1ccccc1NC(=O)c1ccc(OCc2ccccc2)cc1` [1(a), 4-[2-(4-benzyloxybenzoylamino)phenoxy]butanoic acid] and `O=C(O)CCCOc1ccccc1NC(=O)c1ccc(OCCCc2ccccc2)cc1` [1(f), 4-[2-[4-(3-phenylpropoxy)benzoylamino]phenoxy]butanoic acid] are the same in pIC50: 6.70 for the first, 6.70 for the second.

Going from `O=C(O)CCCOc1ccccc1NC(=O)c1ccc(OCCCCc2ccccc2)cc1` [1(g), 4-[2-[4-(4-phenylbutoxy)benzoylamino]phenoxy]butanoic acid] to `CCCc1ccc(COc2ccc(C(=O)Nc3ccccc3OCCCC(=O)O)cc2)cc1` [1(d), 4-[2-[4-(4-propylphenylmethoxy)benzoylamino]phenoxy]butanoic acid], the pIC50 rises from 6.36 to 6.89 (0.53 log units).

Going from `CCCc1ccc(C(Nc2ccc(C(=O)Nc3ccccc3OCCCC(=O)O)cc2)c2ccc(CCC)cc2)cc1` [2(s), 4-[2-[4-[bis(4-propylphenyl)methylamino]benzoylamino]phenoxy] butanoic acid] to `CCCc1ccc(C(Nc2ccc(C(=O)Nc3ccccc3OCCCC(=O)O)c(C)c2)c2ccc(CCC)cc2)cc1` [2(r), 4-[2-[4-[bis(4-propylphenyl)methylamino]-2-methylbenzoylamino]phenoxy] butanoic], the pIC50 rises from 7.96 to 8.60 (0.64 log units).

First: Cc1cc(N(Cc2ccc(F)cc2F)Cc2ccc(F)cc2F)ccc1C(=O)Nc1ccccc1OCCCC(=O)O [2(h)]
Second: Cc1cc(N(Cc2ccccc2C(F)(F)F)Cc2ccccc2C(F)(F)F)ccc1C(=O)Nc1ccccc1OCCCC(=O)O [2(j)]
The pIC50 of the first is 0.74 log units lower: 6.85 for the first, 7.59 for the second.

`Cc1cc(OCc2ccc(CC(C)C)cc2)ccc1C(=O)Nc1ccccc1OCCCC(=O)O` [1(h), 4-[2-[4-(4-isobutyphenylmethoxy)-2-methylbenzoylamino]phenoxy]butanoic acid] and `Cc1cc(C(=O)Nc2ccccc2OCCCC(=O)O)ccc1OCc1ccc(CC(C)C)cc1` [1(i), 4-[2-[4-(4-isobutyphenylmethoxy)-3-methylbenzoylamino]phenoxy]butanoic acid] are within 0.2 log units of each other in pIC50: 6.24 for the first, 6.37 for the second.

`CC(C)Cc1ccc(CNc2ccc(C(=O)Nc3ccccc3OCCCC(=O)O)cc2)cc1` [2(l), 4-[2-[4-(4-isobutylbenzylamino)benzoylamino]phenoxy] butanoic acid] and `Cc1cc(NCc2ccc(CC(C)C)cc2)ccc1C(=O)Nc1ccccc1OCCCC(=O)O` [2(m), 4-[2-[4-(4-isobutylbenzylamino)-2-methylbenzoylamino]phenoxy] butanoic acid] are within 0.2 log units of each other in pIC50: 6.82 for the first, 6.92 for the second.

Compared with `CC(C)Cc1ccc(COc2ccc(C(=O)Nc3ccccc3OCCCC(=O)O)cc2)cc1` [Example 1, 4-[2-[4-(4-isobutylphenylmethoxy)benzoylamino]phenoxy]butanoicacid], `CCc1ccc(COc2ccc(C(=O)Nc3ccccc3OCCCC(=O)O)cc2)cc1` [1(c), 4-[2-[4-(4-ethylphenylmethoxy)benzoylamino]phenoxy]butanoic acid] is 0.61 log units lower in pIC50: 7.10 for the first, 6.49 for the second. The first is the more potent here.

`Cc1ccc(COc2ccc(C(=O)Nc3ccccc3OCCCC(=O)O)cc2)cc1` [1(b), 4-[2-[4-(4-methylphenylmethoxy)benzoylamino]phenoxy]butanoic acid] and `CC(C)c1ccc(COc2ccc(C(=O)Nc3ccccc3OCCCC(=O)O)cc2)cc1` [1(e), 4-[2-[4-(4-isopropylphenylmethoxy)benzoylamino]phenoxy]butanoic acid] are within 0.2 log units of each other in pIC50: 6.48 for the first, 6.66 for the second.

Compared with `CCCCCN(CCCCC)c1ccc(C(=O)Nc2ccccc2OCCCC(=O)O)c(C)c1` [2(c), 4-[2-[4-[N, N-dipenthylamino)-2-methylbenzoylamino]phenoxy] butanoic acid], `CCCCCN(Cc1ccc(CCC)cc1)c1ccc(C(=O)Nc2ccccc2OCCCC(=O)O)c(C)c1` [2(d)] is 1.08 log units higher in pIC50: 6.52 for the first, 7.60 for the second.

Compared with `Cc1cc(NCc2ccccc2C(F)(F)F)ccc1C(=O)Nc1ccccc1OCCCC(=O)O` [2(q), 4-[2-[4-(2-trifluoromethylbenzylamino)-2-methylbenzoylamino]phenoxy] butanoic], `Cc1cc(NCc2ccc(C(C)C)cc2)ccc1C(=O)Nc1ccccc1OCCCC(=O)O` [2(p), 4-[2-[4-(4-isopropylbenzylamino)-2-methylbenzoylamino]phenoxy] butanoic acid] is 0.44 log units higher in pIC50: 6.66 for the first, 7.10 for the second.

Going from `CCCc1ccc(CN(Cc2ccc(CCC)cc2)c2ccc(C(=O)Nc3ccccc3OCCCC(=O)O)c(C)c2)cc1` [Example 2, 4-[2-[2-methyl-4-[N,N-bis(4-propylbenzyl)amino]benzoylamino]phenoxy]butanoic acid] to `CCCc1ccc(CN(Cc2ccc(CCC)cc2)c2ccc(C(=O)Nc3ccccc3SCCCC(=O)O)c(C)c2)cc1` [3(b), 4-[2-[4-[N,N-bis(4-propylbenzyl)amino]-2-methylbenzoylamino]phenylthio]butanoic], the pIC50 falls from 7.96 to 7.60 (0.36 log units). The first is the more potent here.

Compared with `O=C(O)CCCOc1ccccc1NC(=O)c1ccc(CNc2cccc3c2CCCC3)cc1` [6(b), 4-[2-[4-(5,6,7,8-tetrahydronaphthalene-1-yl)aminomethylbenzoylamino]phenoxy] butanoic], `CN(Cc1ccc(C(=O)Nc2ccccc2OCCCC(=O)O)cc1)c1cccc2c1CCCC2` [6(c), 4-[2-[4-[N-methyl-N-(5,6,7,8,- tetrahydronaphthalene-1-yl)aminomethyl]benzoylamino]phenoxy] butanoic acid] is 0.21 log units higher in pIC50: 6.64 for the first, 6.85 for the second.

Going from `CCCc1ccc(CN(C(=O)c2ccc(CCC)cc2)c2ccc(C(=O)Nc3ccccc3OCCCC(=O)O)c(C)c2)cc1` [2(i)] to `CCCc1ccc(CN(Cc2ccc(CCC)cc2)c2ccc(C(=O)Nc3ccccc3OCCCC(=O)O)cc2)cc1` [2(a), 4-[2-[4-[N, N-bis(4-propylbenzyl)amino]benzoylamino]phenoxy] butanoic acid], the pIC50 rises from 6.82 to 7.64 (0.82 log units).

`CCCc1ccc(CN(C)c2ccc(C(=O)Nc3ccccc3OCCCC(=O)O)c(C)c2)cc1` [2(e), 4-[2-[4-[N-methyl-N-(4-propylbenzyl)amino]-2-methylbenzoylamino]phenoxy]butanoic] and `CCCc1ccc(CNc2ccc(C(=O)Nc3ccccc3OCCCC(=O)O)c(C)c2)cc1` [2(n), 4-[2-[4-(4-propylbenzylamino)-2-methylbenzoylamino]phenoxy] butanoic acid] are within 0.2 log units of each other in pIC50: 7.36 for the first, 7.40 for the second.

`Cc1cc(N(Cc2ccc(C(C)C)cc2)Cc2ccc(C(C)C)cc2)ccc1C(=O)Nc1ccccc1OCCCC(=O)O` [2(g), 4-[2-[4-[N, N-bis(4-isopropylbenzyl)amino]-2-methylbenzoylamino]phenoxy] butanoic] and `Cc1cc(N(Cc2ccc(CC(C)C)cc2)Cc2ccc(CC(C)C)cc2)ccc1C(=O)Nc1ccccc1OCCCC(=O)O` [2(b), 4-[2-[4-[N, N-bis(4-isobutylbenzyl)amino]-2-methylbenzoylamino]phenoxy]butanoic] are within 0.2 log units of each other in pIC50: 7.57 for the first, 7.60 for the second.

Compared with `Cc1cc(NC(C)c2ccc(CC(C)C)cc2)ccc1C(=O)Nc1ccccc1OCCCC(=O)O` (centres unmarked) [2(o), 4-[2-[4-[1-(4-isobutylphenyl)ethylamino]-2-methylbenzoylamino]pehnoxy]butanoic], `CCCc1ccc(CNc2ccc(C(=O)Nc3ccccc3SCCCC(=O)O)c(C)c2)cc1` [3(a), 4-[2-[4-(4-propylbenzylamino)-2-methylbenzoylamino]phenylthio] butanoic acid] is 0.21 log units lower in pIC50: 7.46 for the first, 7.25 for the second.

Going from `Cc1cc(N(Cc2ccc(C(F)(F)F)cc2)Cc2ccc(C(F)(F)F)cc2)ccc1C(=O)Nc1ccccc1OCCCC(=O)O` [2(k), 4-[2-[4-[N,N-bis-(4-trifluoromethylbenzyl)amino]-2-methylbenzoylamino]phenoxy] butanoic] to `CCCc1ccc(CN(Cc2ccc(CCC)cc2)c2ccc(C(=O)Nc3ccccc3[S+]([O-])CCCC(=O)O)c(C)c2)cc1` (centres unmarked) [Example 5, 4-[2-[4-[N,N-bis(4-propylbenzyl)amino]-2-methylbenzoylamino]phenylsulfinyl]butanoic acid], the pIC50 rises from 6.24 to 7.19 (0.95 log units).

Going from `O=C(O)CCCOc1ccccc1NC(=O)c1ccc(OCCCCc2ccccc2)cc1` [Compared compound 2, reference compound] to `Cc1cc(N(CCCCc2ccccc2)CCCCc2ccccc2)ccc1C(=O)Nc1ccccc1OCCCC(=O)O` [2(f), 4-[2-[4-[N, N-bis(4-phenylbutyl)amino]-2-methylbenzoylamino]phenoxy]butanoic], the pIC50 rises from under 4.70 to 6.77.

Going from `CCCc1ccc(C(Oc2ccc(C(=O)Nc3ccccc3OCCCC(=O)O)cc2)c2ccc(CCC)cc2)cc1` [4(a), 4-[2-[4-[bis(4-propylphenyl)methoxy]benzoylamino]phenoxy] butanoic acid] to `CCCc1ccc(C(Oc2ccc(C(=O)Nc3ccccc3OCCCC(=O)O)c(C)c2)c2ccc(CCC)cc2)cc1` [4(b), 4-[2-[4-[bis(4-propylphenyl)methoxy]-2-methylbenzoylamino]phenoxy]butanoic], the pIC50 falls from 8.52 to 8.19 (0.33 log units).
